Reference: US9980973B2, “Bicyclic heterocycle compounds and their uses in therapy” (ASTEX THERAPEUTICS LIMITED, priority 2012, dated 2018)
Where a name gives a salt, the structure may show the parent alone. Read-outs that look alike come from different tables or passages of the source.

Tested on: EVSA-T (human breast carcinoma)
Experiment: Anti-proliferative activity, Alamar Blue assay, EVSA-T
Type: cell-based
[1] = Homo sapiens, EVSA-T, 72 h, EVSA-T cells, 72 hours, Alamar Blue, read-out: EVSA-T prolif
[2] = Homo sapiens, EVSA-T, read-out: EC50 in EVSA-T cell line assays
[3] = EVSA-T cells, 72 hours, Alamar Blue, dihydrochloride, read-out: EVSA-T prolif

Row | SMILES | EC50 [1] [nM] | EC50 [2] [nM] | EC50 [3] [nM]
1 | CC(=O)N1CCN(C[C@H]2CN[C@H](C)CN2CC(=O)N2CC(C)(C)c3ncc(Cc4ccc(F)cc4)cc32)C(C)C1 (mixture of isomers) [Example 33, 2-[(2R,5R)-2-[(4-Acetyl-2-methylpiperazin-1-yl)methyl]-5-methylpiperazin-1-yl]-1-{6-[(4-fluorophenyl)methyl]-3,3-dimethyl-1H,2H,3H-pyrrolo[3,2-b]pyridin-1-yl}ethan-1-one dihydrochloride] | 0.46 | < 1000 | –
2 | CC1CC(=O)CCN1C[C@H]1CN[C@H](C)CN1CC(=O)N1CC(C)(C)c2ncc(Cc3ccc(F)cc3)cc21 (single isomer, unassigned) [Example 39, (2R or 2S)-1-{[(2R,5R)-1-(2-{6-[(4-Fluorophenyl)methyl]-3,3-dimethyl-1H,2H,3H-pyrrolo[3,2-b]pyridin-1-yl}-2-oxoethyl)-5-methylpiperazin-2-yl]methyl}-2-methylpiperidin-4-one dihydrochloride] | 5.4 | < 1000 | –
3 | CC1CC(=O)CCN1C[C@H]1CN[C@H](C)CN1CC(=O)N1CC(C)(C)c2ncc(Cc3ccc(F)cc3)cc21 (single isomer, unassigned) [Example 40, dihydrochloride] | – | – | 2.8
4 | COCC1(C)COCCN1C[C@H]1CN[C@H](C)CN1CC(=O)N1CC(C)(C)c2ncc(Cc3ccc(F)cc3)cc21 (single isomer, unassigned) [Example 99, dihydrochloride] | 1.5 | – | –
5 | C[C@@H]1CN(CC(=O)N2CC(C)(C)c3ncc(C(O)c4ccc(F)cc4F)cc32)[C@@H](CN2[C@H](C)COC[C@H]2C)CN1 (single isomer, unassigned) [Example 103, (R or S)-1-[6-[(2,4-Difluorophenyl)(hydroxy)meth-yl]-3,3-dimethyl-1H,2H,3H-pyrrolo[3,2-b]pyridin-1-yl}-2-[(2R,5R)-2-{[(3R,5R)-3,5-dimethylmorpholin-4-yl]methyl}-5-methylpiperazin-1-yl]ethan-1-one dihydrochloride] | – | < 1000 | 2.8
6 | C[C@@H]1CN(CC(=O)N2CC(C)(C)c3ncc(C(O)c4ccc(F)cc4F)cc32)[C@@H](CN2[C@H](C)COC[C@H]2C)CN1 (single isomer, unassigned) [Example 104, (R or S)-1-{6-[(2,4-Difluorophenyl)(hydroxy)meth-yl]-3,3-dimethyl-1H,2H,3H-pyrrolo[3,2-b]pyridin-1-yl}-2-[(2R,5R)-2-{[(3R,5R)-3,5-dimethylmorpholin-4-yl]methyl}-5-methylpiperazin-1-yl]ethan-1-one dihydrochloride] | – | – | 1.3
7 | C[C@@H]1CN(CC(=O)N2CC(C)(C)c3ncc(C(O)c4ccc(F)c(F)c4)cc32)[C@@H](CN2[C@H](C)COC[C@H]2C)CN1 (single isomer, unassigned) [Example 109, (R or S)-1-{6-[(3,4-Difluorophenyl)(hydroxy)meth-yl]-3,3-dimethyl-1H,2H,3H-pyrrolo[3,2-b]pyridin-1-yl}-2-[(2R,5R)-2-{[(3R,5R)-3,5-dimethylmorpholin-4-yl]methyl}-5-methylpiperazin-1-yl]ethan-1-one dihydrochloride] | – | < 1000 | 9.7
8 | C[C@@H]1CN(CC(=O)N2CC(C)(C)c3ncc(C(O)c4ccc(F)c(F)c4)cc32)[C@@H](CN2[C@H](C)COC[C@H]2C)CN1 (single isomer, unassigned) [Example 110, (R or S)-1-{6-[(3,4-Difluorophenyl)(hydroxy)meth-yl]-3,3-dimethyl-1H,2H,3H-pyrrolo[3,2-b]pyridin-1-yl}-2-[(2R,5R)-2-{[(3R,5R)-3,5-dimethylmorpholin-4-yl]methyl}-5-methylpiperazin-1-yl]ethan-1-one dihydrochloride] | – | – | 2.8
9 | C[C@@H]1CN(CC(=O)N2CC(C)(C)c3ncc(C(O)c4ccccc4)cc32)[C@@H](CN2[C@H](C)COC[C@H]2C)CN1 (single isomer, unassigned) [Example 113, 2-[(2R,5R)-2-{[(3R,5R)-3,5-Dimethylmorpholin-4-yl]methyl}-5-methylpiperazin-1-yl]-1-{(R or S)-6-[hydroxy(phenyl)methyl]-3,3-dimethyl-1H,2H,3H-pyrrolo[3,2-]pyridin-1-yl}ethan-1-one dihydrochloride] | 9.4 | < 1000 | –
10 | C[C@@H]1CN(CC(=O)N2CC(C)(C)c3ncc(C(O)c4ccccc4)cc32)[C@@H](CN2[C@H](C)COC[C@H]2C)CN1 (single isomer, unassigned) [Example 114, 2-[(2R,5R)-2-{[(3R,5R)-3,5-Dimethymorpholin-4-yl]methyl}-5-methylpiperazin-1-yl]-1-{(R or S)-6-[hydroxy(phenyl)methyl]-3,3-dimethyl-1H,2H,3H-pyrrolo[3,2-b]pyridin-1-yl}ethan-1-one dihydrochloride] | – | – | 24
11 | C[C@@H]1CN(CC(=O)N2CC(C)(C)c3ncc(C(O)c4cc(F)ccc4F)cc32)[C@@H](CN2[C@H](C)COC[C@H]2C)CN1 (single isomer, unassigned) [Example 115, 1-{(R or S)-6-[(2,5-Difluorophenyl)(hydroxy)meth-yl]-3,3-dimethyl-1H,2H,3H-pyrrolo[3,2-b]pyridin-1-yl}-2-[(2R,5R)-2-{[(3R,5R)-3,5-dimethylmorpholin-4-yl]methyl}-5-methylpiperazin-1-yl]ethan-1-one dihydrochloride] | – | < 1000 | 9.5

Second part, led by results:

Row | EC50 [1] [nM] | EC50 [2] [nM] | SMILES | EC50 [3] [nM]
12 | 6 | < 1000 | CO[C@@H]1CN(C[C@H]2CN[C@H](C)CN2CC(=O)N2CC(C)(C)c3ncc(Cc4ccc(F)cc4)cc32)C[C@@H]1F (mixture of isomers) [Example 41] | –
13 | 6.8 | < 1000 | C[C@@H]1CN(CC(=O)N2CC(C)(C)c3ncc(Cc4ccc(F)cc4)cc32)[C@@H](CN2CCC(F)(F)CC2)CN1 [Example 4, 2-[(2R,5R)-2-[(4,4-Difluoropiperidin-1-yl)methyl]-5-methylpiperazin-1-yl]-1-{6-[(4-fluorophenyl)methyl]-3,3-dimethyl-1H,2H,3H-pyrrolo[3,2-b]pyridin-1-yl}ethan-1-one dihydrochloride] | –
14 | 0.3 | < 1000 | C[C@@H]1CN(CC(=O)N2CC(C)(C)c3ncc(Cc4ccc(F)cc4)cc32)[C@@H](CN2CCOCC2(C)C)CN1 [Example 5, 2-[(2R,5R)-2-[(3,3-Dimethylmorpholin-4-yl)methyl]-5-methylpiperazin-1-yl]-1-{6-[(4-fluorophenyl)methyl]-3,3-dimethyl-1H,2H,3H-pyrrolo[3,2-b]pyridin-1-yl}ethan-1-one dihydrochloride] | –
15 | 4.6 | < 1000 | C[C@@H]1CN(CC(=O)N2CC(C)(C)c3ncc(Cc4ccc(F)cc4)cc32)[C@@H](CN2CCC(F)(F)C2)CN1 [Example 6, 2-[(2R,5R)-2-[(3,3-Difluoropyrrolidin-1-yl)methyl]-5-methylpiperazin-1-yl]-1-{6-[(4-fluorophenyl)methyl]-3,3-dimethyl-1H,2H,3H-pyrrolo[3,2-b]pyridin-1-yl}ethan-1-one dihydrochloride] | –
16 | 3 | < 1000 | CC1CC(=O)CCN1C[C@H]1CN[C@H](C)CN1CC(=O)N1CC(C)(C)c2ncc(Cc3ccc(F)cc3)cc21 (stereo partly drawn) [Example 8, 1-{[(2R,5R)-1-(2-{6-[(4-Fluorophenyl)methyl]-3,3-dimethyl-1H,2H,3H-pyrrolo[3,2-b]pyridin-1-yl}-2-oxoethyl)-5-methylpiperazin-2-yl]methyl}-2-methylpiperidin-4-one dihydrochloride] | –
